Results: article PMC6044684 (ACS Omega, 2016)

Molecular target: epidermal growth factor receptor (EGFR) (Homo sapiens, UniProt P00533)
Assay: SPR
Format: binding

Sequence of epidermal growth factor receptor (EGFR) (P00533 25-1210): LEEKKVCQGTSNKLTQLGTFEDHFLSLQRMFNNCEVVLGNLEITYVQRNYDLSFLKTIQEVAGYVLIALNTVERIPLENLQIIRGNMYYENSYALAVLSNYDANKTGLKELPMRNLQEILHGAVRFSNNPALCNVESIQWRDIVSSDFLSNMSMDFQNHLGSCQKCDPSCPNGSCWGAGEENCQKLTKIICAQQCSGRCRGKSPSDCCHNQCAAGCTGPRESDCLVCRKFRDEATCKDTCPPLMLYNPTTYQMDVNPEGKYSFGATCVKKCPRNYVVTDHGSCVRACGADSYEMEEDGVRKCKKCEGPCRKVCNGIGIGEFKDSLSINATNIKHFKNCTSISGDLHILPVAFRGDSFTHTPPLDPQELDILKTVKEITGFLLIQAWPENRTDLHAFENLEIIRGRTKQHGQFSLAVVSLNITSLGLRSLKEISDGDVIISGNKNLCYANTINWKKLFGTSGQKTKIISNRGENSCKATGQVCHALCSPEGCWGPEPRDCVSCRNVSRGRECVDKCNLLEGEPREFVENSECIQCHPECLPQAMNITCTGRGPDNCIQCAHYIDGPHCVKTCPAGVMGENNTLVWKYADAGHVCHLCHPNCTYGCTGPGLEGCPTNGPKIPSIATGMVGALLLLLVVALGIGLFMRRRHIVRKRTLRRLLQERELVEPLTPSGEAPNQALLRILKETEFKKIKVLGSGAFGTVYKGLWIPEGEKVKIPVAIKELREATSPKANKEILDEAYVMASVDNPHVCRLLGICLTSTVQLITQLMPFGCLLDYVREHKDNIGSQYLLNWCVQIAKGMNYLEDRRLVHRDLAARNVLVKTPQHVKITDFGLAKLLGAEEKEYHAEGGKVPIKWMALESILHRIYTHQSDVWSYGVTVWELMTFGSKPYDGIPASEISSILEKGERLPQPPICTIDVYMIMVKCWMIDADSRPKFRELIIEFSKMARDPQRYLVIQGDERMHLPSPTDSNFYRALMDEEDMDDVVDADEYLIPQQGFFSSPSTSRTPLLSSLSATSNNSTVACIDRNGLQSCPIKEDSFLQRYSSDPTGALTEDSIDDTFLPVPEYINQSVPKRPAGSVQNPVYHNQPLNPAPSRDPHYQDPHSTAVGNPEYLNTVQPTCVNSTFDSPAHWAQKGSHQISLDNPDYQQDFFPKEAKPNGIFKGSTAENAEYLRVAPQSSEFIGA

Compound: Clc1ccc(C2=NN(c3nc(C45CC6CC(CC(C6)C4)C5)cs3)C(c3ccccc3)C2)c(Cl)c1 (stereo not shown) [3e, 4-(adamantan-1-yl)-2-(3-(2,4-dichlorophenyl)-5-phenyl-4,5-dihydro-1H-pyrazol-1-yl)thiazole]
- Kd: 11.8 ± 2.4 µM
